This passage reports EC50 results from patent publication US8354419B2, “Benzimidazole analogues for the treatment or prevention of flavivirus infections” (Vertex Pharmaceuticals Incorporated, priority 2009, dated 2013).

A value given as a limit tells only on which side of the number the result lay.

For the test, the system named is HCV (Ib) RNA replication. As to the kind of experiment: Cell-based luciferase reporter HCV (1b) RNA replication assay (replicon cell lines Huh-7 5.2 and ET). The arrangement: species or system Hepatitis C virus. As to conditions: Hepatitis C virus, Huh-7, 96 h, HCV 1b genotype replicon, luciferase readout, 4 days incubation; read-out: EC50_1b. The gist of the method:
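Compounds were tested at eleven concentrations in duplicate over 4 days at 37 °C, 5% CO2. The cells were luciferase-reporter HCV 1b replicon lines 5.2 (NS5A adaptive mutation) or ET (NS4B mutation). Luminescence of lysates was measured, and IC50s were derived by nonlinear curve fitting.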
(In general: Reporter assays use an easily measured gene product as a stand-in for the process of interest.)

On to `CC(C)C(NC(=O)C1CCCCC1)C(=O)N1CCC[C@H]1c1nc2cc(C#Cc3ccc4[nH]c([C@@H]5CCCN5C(=O)C(NC(=O)C5CCCCC5)C(C)C)nc4c3)ccc2[nH]1` (some centres unmarked) [Compound 85], for which the EC50 was 5 to 5000 nM. Turning to `O=C1CC[C@H](C(=O)N2CCC[C@H]2c2nc3cc(C#Cc4ccc5[nH]c([C@@H]6CCCN6C(=O)[C@H]6CCC(=O)N6)nc5c4)ccc3[nH]2)N1` [Compound 86], the EC50 was more than 5000 nM. Take `CC(C)[C@H](NC(=O)[C@@H]1CCC(=O)N1)C(=O)N1CCC[C@H]1c1nc2cc(C#Cc3ccc4[nH]c([C@@H]5CCCN5C(=O)[C@@H](NC(=O)[C@@H]5CCC(=O)N5)C(C)C)nc4c3)ccc2[nH]1` [Compound 87]: the EC50 was more than 5000 nM.

Regarding `CC(C)(NC(=O)OCc1ccccc1)C(=O)N1CCC[C@H]1c1nc2cc(C#Cc3ccc4[nH]c([C@@H]5CCCN5C(=O)C(C)(C)NC(=O)OCc5ccccc5)nc4c3)ccc2[nH]1` [Compound 88], the EC50 fell in the range of 5 to 5000 nM. Next, `CC(C)[C@H](NC(=O)Cc1c[nH]c2ccccc12)C(=O)N1CCC[C@H]1c1nc2cc(C#Cc3ccc4[nH]c([C@@H]5CCCN5C(=O)[C@@H](NC(=O)Cc5c[nH]c6ccccc56)C(C)C)nc4c3)ccc2[nH]1` [Compound 89]: 5 to 5000 nM. In the case of `COC(=O)N[C@H](C(=O)N1CC(F)(F)C[C@H]1c1nc2cc(C#Cc3ccc4nc([C@@H]5CC(F)(F)CN5C(=O)[C@@H](NC(=O)OC)C(C)C)[nH]c4c3)ccc2[nH]1)C(C)C` [Compound 90], the EC50 is not above 5 nM. For the compound `CC(C)[C@H](NC(=O)N(C)C)C(=O)N1CCC[C@H]1c1nc2cc(C#Cc3ccc4nc([C@@H]5CCCN5C(=O)[C@@H](NC(=O)N(C)C)C(C)C)[nH]c4c3)ccc2[nH]1` [Compound 91], the EC50 is not above 5 nM. Regarding `CC(C)(C)OC(=O)N1CCCC[C@H]1c1nc2cc(C#Cc3ccc4[nH]c([C@@H]5CCCCN5C(=O)OC(C)(C)C)nc4c3)ccc2[nH]1` [Compound 92], the EC50 is not above 5 nM.

`COC(=O)NCC(=O)N1CCC[C@H]1c1nc2cc(C#Cc3ccc4nc([C@@H]5CCCN5C(=O)CNC(=O)OC)[nH]c4c3)ccc2[nH]1` [Compound 93]: the EC50 was 5 to 5000 nM. Consider `COC(=O)N[C@H](C(=O)N1CCC[C@H]1c1nc2cc(C#Cc3ccc4[nH]c([C@@H]5CCCN5C(=O)[C@@H](NC(=O)OC)C5CC5)nc4c3)ccc2[nH]1)C1CC1` [Compound 94], for which the EC50 was in the range of 5 to 5000 nM. Consider `COC(=O)N[C@H](C(=O)N1CCC[C@H]1c1nc2cc(C#Cc3ccc4[nH]c([C@@H]5CCCN5C(=O)[C@@H](NC(=O)OC)C5CCCCC5)nc4c3)ccc2[nH]1)C1CCCCC1` [Compound 95], for which the EC50 is not above 5 nM. On to `CC(=O)N[C@H](C(=O)N1CCC[C@H]1c1nc2cc(C#Cc3ccc4[nH]c([C@@H]5CCCN5C(=O)[C@@H](NC(C)=O)C(C)C)nc4c3)ccc2[nH]1)C(C)C` [Compound 96], for which the EC50 was 5 to 5000 nM.

With `CC(=O)N[C@H](C(=O)N1CCC[C@H]1c1nc2cc(C#Cc3ccc4[nH]c([C@@H]5CCCN5C(=O)[C@H](NC(C)=O)C(C)C)nc4c3)ccc2[nH]1)C(C)C` [Compound 97], the EC50 was 5 to 5000 nM. With `CC(=O)N[C@@H](C(=O)N1CCC[C@@H]1c1nc2cc(C#Cc3ccc4[nH]c([C@H]5CCCN5C(=O)[C@H](NC(C)=O)C(C)C)nc4c3)ccc2[nH]1)C(C)C` [Compound 98], the EC50 was in the range of 5 to 5000 nM. As to `O=C([C@H]1C[C@@H](O)CN1)N1CCC[C@H]1c1nc2cc(C#Cc3ccc4[nH]c([C@@H]5CCCN5C(=O)[C@H]5C[C@@H](O)CN5)nc4c3)ccc2[nH]1` [Compound 99], the EC50 lay in the range of 5 to 5000 nM. For `O=C([C@H]1C[C@H](O)CN1)N1CCC[C@H]1c1nc2cc(C#Cc3ccc4[nH]c([C@@H]5CCCN5C(=O)[C@H]5C[C@H](O)CN5)nc4c3)ccc2[nH]1` [Compound 100], the EC50 is more than 5000 nM.

Regarding `CC(C)[C@H](NC(=O)O[C@H]1CCOC1)C(=O)N1CCC[C@H]1c1nc2cc(-c3ccc(-c4ccc5[nH]c([C@@H]6CCCN6C(=O)[C@@H](NC(=O)O[C@H]6CCOC6)C(C)C)nc5c4)s3)ccc2[nH]1` [Compound 101], the EC50 lay within 5 to 5000 nM.

With `COC(=O)N[C@@H](C(=O)N1CC[C@H]1c1nc2cc(C#CC#Cc3ccc4[nH]c([C@@H]5CCN5C(=O)[C@H](NC(=O)OC)C(C)C)nc4c3)ccc2[nH]1)C(C)C` [Compound 102], the EC50 was not above 5 nM. In the case of `O=C(CC1CCCCC1)N1CCC[C@H]1c1nc2cc(C#Cc3ccc4[nH]c([C@@H]5CCCN5C(=O)CC5CCCCC5)nc4c3)ccc2[nH]1` [Compound 103], the EC50 fell in the range of 5 to 5000 nM.

Take `CC[C@@H](NC(C)=O)C(=O)N1CCC[C@H]1c1nc2cc(C#Cc3ccc4[nH]c([C@@H]5CCCN5C(=O)[C@@H](CC)NC(C)=O)nc4c3)ccc2[nH]1` [Compound 104]: the EC50 was in the range of 5 to 5000 nM.

As to `COCCCC(=O)N1CCC[C@H]1c1nc2cc(C#Cc3ccc4[nH]c([C@@H]5CCCN5C(=O)CCCOC)nc4c3)ccc2[nH]1` [Compound 105], the EC50 lay within 5 to 5000 nM.

Regarding `O=C(CC1CCOCC1)N1CCC[C@H]1c1nc2cc(C#Cc3ccc4[nH]c([C@@H]5CCCN5C(=O)CC5CCOCC5)nc4c3)ccc2[nH]1` [Compound 106], the EC50 was 5 to 5000 nM. Next, `CCOCCC(=O)N1CCC[C@H]1c1nc2cc(C#Cc3ccc4[nH]c([C@@H]5CCCN5C(=O)CCOCC)nc4c3)ccc2[nH]1` [Compound 107]: 5 to 5000 nM. As to `O=C(CC1CC1)N1CCC[C@H]1c1nc2cc(C#Cc3ccc4[nH]c([C@@H]5CCCN5C(=O)CC5CC5)nc4c3)ccc2[nH]1` [Compound 108], the EC50 is 5 to 5000 nM. As for `CCC[C@H](NC(C)=O)C(=O)N1CCC[C@H]1c1nc2cc(C#Cc3ccc4[nH]c([C@@H]5CCCN5C(=O)[C@H](CCC)NC(C)=O)nc4c3)ccc2[nH]1` [Compound 109], the EC50 was 5 to 5000 nM.

For the compound `CC(=O)NC1(C(=O)N2CCC[C@H]2c2nc3cc(C#Cc4ccc5[nH]c([C@@H]6CCCN6C(=O)C6(NC(C)=O)CC6)nc5c4)ccc3[nH]2)CC1` [Compound 110], the EC50 is more than 5000 nM. Consider `CC[C@H](NC(C)=O)C(=O)N1CCC[C@H]1c1nc2cc(C#Cc3ccc4[nH]c([C@@H]5CCCN5C(=O)[C@H](CC)NC(C)=O)nc4c3)ccc2[nH]1` [Compound 111], for which the EC50 lay within 5 to 5000 nM. As to `CC(C)(C)OC(=O)N1CCCC[C@H]1c1nc2cc(-c3ccc(-c4ccc5nc([C@@H]6CCCCN6C(=O)OC(C)(C)C)[nH]c5c4)s3)ccc2[nH]1` [Compound 112], the EC50 was 5 to 5000 nM. For the compound `CC(C)(C)OC(=O)N[C@H](CC1CCC1)C(=O)N1CCC[C@H]1c1nc2cc(C#Cc3ccc4[nH]c([C@@H]5CCCN5C(=O)[C@@H](CC5CCC5)NC(=O)OC(C)(C)C)nc4c3)ccc2[nH]1` [Compound 113], the EC50 was not above 5 nM. For the compound `CC(C)(C)OC(=O)N1CC(F)(F)C[C@H]1C(=O)N1CCC[C@H]1c1nc2cc(C#Cc3ccc4[nH]c([C@@H]5CCCN5C(=O)[C@@H]5CC(F)(F)CN5C(=O)OC(C)(C)C)nc4c3)ccc2[nH]1` [Compound 114], the EC50 was 5 to 5000 nM. With `COC(=O)N[C@H](C(=O)N1CCC[C@H]1c1nc2cc(C#Cc3ccc4nc([C@@H]5CCCN5C(=O)[C@@H](NC(=O)OC)C5CCCCC5)[nH]c4c3)ccc2[nH]1)C(C)C` [Compound 115] the figure was not above 5 nM; with `COC(=O)N[C@H](C(=O)N1CCC[C@H]1c1nc2cc(CCc3ccc4[nH]c([C@@H]5CCCN5C(=O)[C@H](NC(=O)OC)C(C)C)nc4c3)ccc2[nH]1)C(C)C` [Compound 116], not above 5 nM. For the compound `COC(=O)N[C@H](C(=O)N1CCC[C@H]1c1nc2cc(C#Cc3ccc4nc([C@@H]5CCCN5C(=O)[C@H](C(C)C)N(C)C(=O)OC)[nH]c4c3)ccc2[nH]1)C(C)C` [Compound 117], the EC50 was not above 5 nM.

Turning to `CC[C@H](NC(=O)OC)C(=O)N1CCC[C@H]1c1nc2cc(C#Cc3ccc4[nH]c([C@@H]5CCCN5C(=O)[C@H](CC)NC(=O)OC)nc4c3)ccc2[nH]1` [Compound 118], the EC50 was not above 5 nM. As for `O=C(OCc1ccccc1)N1COC[C@@H]1C(=O)N1CCC[C@H]1c1nc2cc(C#Cc3ccc4[nH]c([C@@H]5CCCN5C(=O)[C@H]5COCN5C(=O)OCc5ccccc5)nc4c3)ccc2[nH]1` [Compound 119], the EC50 was not above 5 nM.

Regarding `O=C(C1CCCC1)N1CCCC[C@H]1c1nc2cc(C#CC#Cc3ccc4[nH]c([C@@H]5CCCCN5C(=O)C5CCCC5)nc4c3)ccc2[nH]1` [Compound 120], the EC50 was more than 5000 nM.

On to `CC(C)(C)OC(=O)NC(CC1CCC1)C(=O)N1CCC[C@H]1c1nc2cc(C#Cc3ccc4[nH]c([C@@H]5CCCN5C(=O)[C@H](CC5CCC5)NC(=O)OC(C)(C)C)nc4c3)ccc2[nH]1` (some centres unmarked) [Compound 121], for which the EC50 was in the range of 5 to 5000 nM. Next, `COC(=O)N[C@H](C(=O)N1CCC[C@H]1c1nc2cc(C#Cc3ccc4nc([C@@H]5CCCN5C(=O)NC(C)C)[nH]c4c3)ccc2[nH]1)C(C)C` [Compound 122]: not above 5 nM; `COC(=O)N[C@H](C(=O)N1CCC[C@H]1c1nc2cc(C#Cc3ccc4nc([C@@H]5CCCN5C(=O)NC5CCCCC5)[nH]c4c3)ccc2[nH]1)C(C)C` [Compound 123]: 5 to 5000 nM. Turning to `CC(C)(C)CC(=O)N1CCC[C@H]1c1nc2cc(C#Cc3ccc4[nH]c([C@@H]5CCCN5C(=O)CC(C)(C)C)nc4c3)ccc2[nH]1` [Compound 124], the EC50 fell in the range of 5 to 5000 nM.

As for `O=C(CC1CCCC1)N1CCC[C@H]1c1nc2cc(C#Cc3ccc4[nH]c([C@@H]5CCCN5C(=O)CC5CCCC5)nc4c3)ccc2[nH]1` [Compound 125], the EC50 was 5 to 5000 nM.

`CC(C)(C)OC(=O)NC(C)(C)C(=O)N1CCC[C@H]1c1nc2cc(C#Cc3ccc4[nH]c([C@@H]5CCCN5C(=O)C(C)(C)NC(=O)OC(C)(C)C)nc4c3)ccc2[nH]1` [Compound 128]: the EC50 is 5 to 5000 nM. `CC(C)(C)OC(=O)N1CC[C@H]1C(=O)N1CCC[C@H]1c1nc2cc(C#Cc3ccc4[nH]c([C@@H]5CCCN5C(=O)[C@@H]5CCN5C(=O)OC(C)(C)C)nc4c3)ccc2[nH]1` [Compound 129]: the EC50 was more than 5000 nM. Regarding `CC(C)(C)OC(=O)NC1(C(=O)N2CCC[C@H]2c2nc3cc(C#Cc4ccc5[nH]c([C@@H]6CCCN6C(=O)C6(NC(=O)OC(C)(C)C)CCC6)nc5c4)ccc3[nH]2)CCC1` [Compound 130], the EC50 was in the range of 5 to 5000 nM.
